Read-outs that look alike come from different tables or passages of the source.
Legend:
[1] = test system: L. (L.) amazonensis intracellular amastigotes; experiment: In vitro antileishmanial activity on intracellular amastigotes in peritoneal macrophages; format: cell-based, Leishmania (Leishmania) amazonensis; details: for IC50: BALB/c peritoneal macrophages, 24 h, Giemsa count, read-out: L. amazonensis Intracellular Amastigotes (Ama.) IC50
Protocol: Peritoneal macrophages were obtained from BALB/c mice in RPMI 1640 culture medium (Sigma-Aldrich® São Paulo, Brazil). After exclusion of inviable cells with trypan blue staining (Sigma-Aldrich® São Paulo, Brazil), cells were transferred to 24-well plates with 13 mm round glass coverslips (10^6 cells/well) and kept at 37 °C/5% CO2. After adhesion for one hour, cells were infected with promastigote forms of L. (L.) amazonensis in the stationary phase (4 × 10^6 cells/well). After 4 h of incubation, samples (complexes 1–7) were added in six replicates (6.25–50.0 µg·mL^−1). […] Coverslips were removed after 24 h, subjected to a dehydration battery with increasing concentrations of acetone: xylol and stained with Giemsa (Sigma-Aldrich®, São Paulo, Brazil) diluted 1:10 in distilled water. After mounting on slides, 200 cells per coverslip were analyzed by light microscopy and the average number of amastigotes/cells was calculated. IC50 was determined using a non-linear dose–response regression curve as described above. The concentrations of complexes were compared by Two-way ANOVA followed by the Tukey test.

[2] = test system: L. (L.) amazonensis promastigote forms; experiment: In vitro antileishmanial activity on promastigote forms (MTT); format: cell-based, Leishmania (Leishmania) amazonensis; details: 72 h
[3] = test system: L. (L.) amazonensis promastigote forms; experiment: Flow cytometry for mitochondrial membrane potential (TMRE); format: cell-based, Leishmania (Leishmania) amazonensis; details: for reduction in TMRE labeling (ΔΨm): treatment at IC50, relative to nontreated parasites
[4] = test system: NIH/3T3 fibroblasts; experiment: Cytotoxicity in mammalian cells (sulforhodamine B); format: cell-based; details: 48 h, read-out: Fibroblasts NIH/3T3 (Fib.) IC50
Protocol: The cytotoxic effect of compounds 1–7 was evaluated on NIH/3T3 fibroblasts obtained from the Rio de Janeiro Cell Bank (Duque de Caxias, Brazil). Fibroblasts were seeded at […] in 96-well plates. After 24 h of fixation, cells were incubated for 48 h with 1–7 at 2.5–250 µg·mL^−1, in three replicates. Cell growth was evaluated using the sulforhodamine B colorimetric method, and the optical with absorbances read on the PT-READER microplate instrument (Spectramax 190, Molecular Devices, Sunnyvale, CA, USA) at 540 nm. […] The growth inhibition percentage-GI (%) of each test sample was calculated in Microsoft Office Excel 2007 software. IC50 was determined graphically in the Microcal Origin Version 6.00 program. The selectivity index (SI) was calculated as the ratio between the cytotoxicity on cells (IC50) and the activity on the parasite forms (IC50).

[5] = test system: L. (L.) amazonensis promastigote forms; experiment: Flow cytometry for apoptosis and membrane permeability (PE Annexin V / 7-AAD); format: cell-based, Leishmania (Leishmania) amazonensis; details: for 7-AAD-stained parasites / An. (PE Annexin V-stained parasites) / An./7-AAD (double stained parasites) / Unst. (unstained parasites): treatment at IC50
Source text: PE Annexin V staining precedes the loss of membrane integrity observed in the final stages of cell death, resulting from either apoptotic or necrotic processes. PE Annexin V is used in conjunction with the vital dye 7-Amino-Actinomycin (7-AAD) to identify early apoptotic cells (7-AAD negative, PE Annexin V positive). Viable cells with intact membranes exclude 7-AAD, but the membranes of dead and damaged cells are permeable to 7-AAD. Cells that are in late apoptosis or already dead are both PE Annexin V and 7-AAD positive. […] Heat-killed parasites (60 °C bath/10 min) were used as positive control, and untreated parasites were used as negative control. Promastigotes were stained with 5 µL of PE Annexin V and 5 µL 7-AAD (PE Annexin V Apoptosis Detection Kit I, BD Biosciences^TM, Franklin Lakes, NJ, USA) and immediately subjected to flow cytometric analysis (BD FACSCanto^TM II). Then, 10,000 events were captured in the region previously determined to correspond to the parasites. Fluorescence was quantified and histograms were generated.

[6] = Leishmania amazonensis, Peritoneal macrophage, in Mus musculus
[7] = 48 h after treatment at the calculated IC50
[8] = 72 h after treatment at the calculated IC50
[9] = MTT, read-out: L. amazonensis Promastigotes (Pro.) IC50

| SMILES | TMRE-labeled promastigotes [3, 7] | reduction in TMRE labeling (ΔΨm) ([3]; 72 h) | TMRE-labeled promastigotes [3, 8] | IC50 [4] | IC50 [1] | 7-AAD-stained parasites ([5]; 24 h) | An. (PE Annexin V-stained parasites) ([5]; 24 h) | An./7-AAD (double stained parasites) ([5]; 24 h) | Unst. (unstained parasites) ([5]; 24 h) | 7-AAD-stained parasites ([5]; 48 h) | An. (PE Annexin V-stained parasites) ([5]; 48 h) | An./7-AAD (double stained parasites) ([5]; 48 h) | Unst. (unstained parasites) ([5]; 48 h) | 7-AAD-stained parasites ([5]; 72 h) | An. (PE Annexin V-stained parasites) ([5]; 72 h) | An./7-AAD (double stained parasites) ([5]; 72 h) | Unst. (unstained parasites) ([5]; 72 h) | IC50 [2, 9] | further results |
| --- | --- | --- | --- | --- | --- | --- | --- | --- | --- | --- | --- | --- | --- | --- | --- | --- | --- | --- | --- |
| C[C@@H]1[C@H](O)[C@@H](C)/C=C/C=C/C=C/C=C/C=C/C=C/C=C/[C@H](O[C@@H]2O[C@H](C)[C@@H](O)[C@H](N)[C@@H]2O)C[C@@H]2O[C@](O)(C[C@@H](O)C[C@@H](O)[C@H](O)CC[C@@H](O)C[C@@H](O)CC(=O)O[C@H]1C)C[C@H](O)[C@H]2C(=O)O [Amphotericin B, reference compound] | – | – | – | – | – | – | – | – | – | – | – | – | – | – | – | – | – | – | IC50 [1, 6]: 198 nM; IC50 ([2]; Leishmania amazonensis, MTT, read-out: L. amazonensis Promastigotes (Pro.) IC50): 145 nM |
| CC(=O)C1=C([O-])C=C2Oc3c(C(C)=O)c(O)c(C)c(O)c3C2(C)C1=O.CC(=O)C1=C([O-])C=C2Oc3c(C(C)=O)c(O)c(C)c(O)c3C2(C)C1=O.CC(=O)C1=C([O-])C=C2Oc3c(C(C)=O)c(O)c(C)c(O)c3C2(C)C1=O.O.O.O.[Gd+3] (stereo not drawn) [GdL3·3H2O 3] | 46.8% | 24.5% | 59.2% | 26500 nM | 5520 nM | 0.4% | 0.7% | 0.6% | 98.4% | 12.7% | 2.4% | 6% | 78.8% | 3.2% | 2.6% | 7.4% | 86.8% | 1500 nM | reduction in TMRE labeling (ΔΨm) ([3]; 48 h): 36.2%; reduction in cell viability ([5]; 48 h after treatment at IC50): 17.4% |
| CC(=O)C1=C([O-])C=C2Oc3c(C(C)=O)c(O)c(C)c(O)c3C2(C)C1=O.CC(=O)C1=C([O-])C=C2Oc3c(C(C)=O)c(O)c(C)c(O)c3C2(C)C1=O.CC(=O)C1=C([O-])C=C2Oc3c(C(C)=O)c(O)c(C)c(O)c3C2(C)C1=O.O.O.O.[La+3] (stereo not drawn) [LaL3·3H2O 7] | 76.0% | 22.3% | 82.0% | 10900 nM | 4580 nM | 0.4% | 0.7% | 0.5% | 98.3% | 1.6% | 1.8% | 3.3% | 93.3% | 5.6% | 2.4% | 10.0% | 82.0% | 1490 nM | Intracellular amastigote activity, arbitrary scale ([1]; class by IC50): active |
| CC(=O)C1=C([O-])C=C2Oc3c(C(C)=O)c(O)c(C)c(O)c3C2(C)C1=O.CC(=O)C1=C([O-])C=C2Oc3c(C(C)=O)c(O)c(C)c(O)c3C2(C)C1=O.CC(=O)C1=C([O-])C=C2Oc3c(C(C)=O)c(O)c(C)c(O)c3C2(C)C1=O.O.O.O.[Nd+3] (stereo not drawn) [NdL3·3H2O 5] | 70.1% | 11.35% | 60.9% | 19700 nM | 2830 nM | 0.3% | 0.7% | 0.5% | 98.4% | 1.6% | 1.4% | 3.3% | 93.8% | 7.7% | 2.5% | 10.0% | 79.8% | 910 nM | – |
| N=C(N)c1ccc(OCCCCCOc2ccc(C(=N)N)cc2)cc1 [Pentamidine, reference compound] | – | – | – | – | – | – | – | – | – | – | – | – | – | – | – | – | – | 1490 nM | IC50 [1, 6]: 920 nM; IC50 ([2]; Leishmania amazonensis, read-out: L. amazonensis Promastigotes (Pro.) IC50, 72 h, MTT): 1500 nM |
| CC(=O)C1=C([O-])C=C2Oc3c(C(C)=O)c(O)c(C)c(O)c3C2(C)C1=O.CC(=O)C1=C([O-])C=C2Oc3c(C(C)=O)c(O)c(C)c(O)c3C2(C)C1=O.CC(=O)C1=C([O-])C=C2Oc3c(C(C)=O)c(O)c(C)c(O)c3C2(C)C1=O.O.O.O.O.[Sm+3] (stereo not drawn) [SmL3·4H2O 2] | 43.5% | 41.7% | 45.7% | 20000 nM | 5230 nM | 10.2% | 3.1% | 5.5% | 81.2% | 2.8% | 1.7% | 3.4% | 92.1% | 4.0% | 2.5% | 7.6% | 85.8% | 1260 nM | reduction in TMRE labeling (ΔΨm) ([3]; 48 h): 40.7%; reduction in viability ([5]; 24 h after treatment at IC50): 17.2% |
| CC(=O)C1=C([O-])C=C2Oc3c(C(C)=O)c(O)c(C)c(O)c3C2(C)C1=O.CC(=O)C1=C([O-])C=C2Oc3c(C(C)=O)c(O)c(C)c(O)c3C2(C)C1=O.CC(=O)C1=C([O-])C=C2Oc3c(C(C)=O)c(O)c(C)c(O)c3C2(C)C1=O.O.O.[Tb+3] (stereo not drawn) [TbL3·2H2O 6] | 70.2% | – | 69.5% | 17500 nM | 7520 nM | 0.2% | 0.8% | 0.6% | 98.3% | 1.2% | 1.3% | 3.0% | 94.5% | 6.4% | 2.6% | 10.1% | 80.9% | 2.3 nM | – |

Reference: PMC10779311, “Antileishmanial Activity, Toxicity and Mechanism of Action of Complexes of Sodium Usnate with Lanthanide Ions: Eu(III), Sm(III), Gd(III), Nd(III), La(III) and Tb(III)” (International Journal of Molecular Sciences, 2023)
